Measurements as given in ChEMBL document CHEMBL1201862, “PubChem BioAssay data set” (2004).
“And” between values parts separate entries of the source, which are not always exact repeats. Equal entries are not always repeated.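 Five compound concentrations were applied to cells in 96-well plates for 48 hours; endpoints were derived by simple linear interpolation of the resulting dose-response curve. At the GI50, growth is halved.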 The source made the active and inactive calls. Cut-off read from the data, not from the text of the source: active = GI50 up to about 1.1 µM and inactive = higher.

Key:
Experiment in all cases: growth of human tumour cells (NCI), 48 h
[1] = system: Hs-578T
[2] = system: PC-3
[3] = system: MDA-MB-231
[4] = system: HT-29
[5] = system: DU-145
[6] = system: SN12C
[7] = system: OVCAR-8
[8] = system: 786-0
[9] = system: UACC-62
[10] = system: SF-539
[11] = system: TK-10
[12] = system: KM12
[13] = system: HL-60
[14] = system: IGROV-1
[15] = system: RXF 393
[16] = system: SK-MEL-5
[17] = system: NCI-H522
[18] = system: SF-295
[19] = system: Malme-3M
[20] = system: SNB-19
[21] = system: MOLT-4
[22] = system: HCC 2998
[23] = system: MCF7
[24] = system: T47D
[25] = system: MDA-N
[26] = system: RPMI-8226
[27] = system: SK-MEL-28
[28] = system: SK-MEL-2
[29] = system: HCT-116
[30] = system: UO-31
[31] = system: NCI-H226
[32] = system: SK-OV-3
[33] = system: CCRF-CEM
[34] = system: COLO 205
[35] = system: SF-268
[36] = system: SW-620
[37] = system: NCI-H460
[38] = system: SR
[39] = system: HOP-62
[40] = system: HCT-15
[41] = system: NCI/ADR-RES
[42] = system: SNB-75
[43] = system: OVCAR-3
[44] = system: CAKI-1
[45] = system: A498
[46] = system: EKVX
[47] = system: M14
[48] = system: HOP-92
[49] = system: ACHN
[50] = system: LOX IMVI
[51] = system: K562
[52] = system: U-251
[53] = system: NCI-H23
[54] = system: UACC-257
[55] = system: A549
[56] = system: OVCAR-4
[57] = system: OVCAR-5
[58] = system: MDA-MB-435

Compound: COc1cc(C(SCc2ccccc2)SCc2ccccc2)ccc1O
- GI50 [1]: 6.12 µM (inactive)
- GI50 [2]: > 10 µM (inactive)
- GI50 [3]: > 10 µM (inactive)
- GI50 [4]: > 10 µM (inactive)
- GI50 [5]: > 10 µM (inactive)
- GI50 [6]: > 10 µM (inactive)
- GI50 [7]: > 10 µM (inactive)
- GI50 [8]: > 10 µM (inactive)
- GI50 [9]: > 10 µM (inactive)
- GI50 [10]: > 10 µM (inactive)
- GI50 [11]: > 10 µM (inactive)
- GI50 [12]: > 10 µM (inactive)
- GI50 [13]: > 10 µM (inactive)
- GI50 [14]: > 10 µM (inactive)
- GI50 [15]: 9.4 µM (inactive)
- GI50 [16]: > 10 µM (inactive)
- GI50 [17]: > 10 µM (inactive)
- GI50 [18]: > 10 µM (inactive)
- GI50 [19]: > 10 µM (inactive)
- GI50 [20]: > 10 µM (inactive)
- GI50 [21]: 9.33 µM (inactive)
- GI50 [22]: > 10 µM (inactive)
- GI50 [23]: > 10 µM (inactive)
- GI50 [24]: 8.97 µM (inactive)
- GI50 [25]: > 10 µM (inactive)
- GI50 [26]: > 10 µM (inactive)
- GI50 [27]: > 10 µM (inactive)
- GI50 [28]: > 10 µM (inactive)
- GI50 [29]: 7.41 µM (inactive)
- GI50 [30]: 7.06 µM (inactive)
- GI50 [31]: > 10 µM (inactive)
- GI50 [32]: 4.22 µM (inactive)
- GI50 [33]: > 10 µM (inactive)
- GI50 [34]: > 10 µM (inactive)
- GI50 [35]: > 10 µM (inactive)
- GI50 [36]: > 10 µM (inactive)
- GI50 [37]: > 10 µM (inactive)
- GI50 [38]: > 10 µM (inactive)
- GI50 [39]: > 10 µM (inactive)
- GI50 [40]: > 10 µM
- GI50 [41]: > 10 µM (inactive)
- GI50 [42]: > 10 µM (inactive)
- GI50 [43]: > 10 µM (inactive)
- GI50 [44]: > 10 µM (inactive)
- GI50 [45]: > 10 µM (inactive)
- GI50 [46]: > 10 µM (inactive)
- GI50 [47]: > 10 µM (inactive)
- GI50 [48]: > 10 µM (inactive)
- GI50 [49]: > 10 µM (inactive)
- GI50 [50]: > 10 µM (inactive)
- GI50 [51]: > 10 µM (inactive)
- GI50 [52]: > 10 µM (inactive)

Compound: Clc1ccc(/C=N/Nc2nnc3c4ccccc4c4ncccc4c3n2)cc1
- GI50 [2]: > 10 µM (inactive)
- GI50 [3]: > 10 µM (inactive)
- GI50 [4]: > 10 µM (inactive)
- GI50 [5]: > 10 µM (inactive)
- GI50 [6]: > 10 µM (inactive)
- GI50 [7]: > 10 µM (inactive)
- GI50 [8]: > 10 µM (inactive)
- GI50 [9]: > 10 µM (inactive)
- GI50 [11]: > 10 µM (inactive)
- GI50 [12]: > 10 µM (inactive)
- GI50 [13]: > 10 µM (inactive)
- GI50 [14]: > 10 µM (inactive)
- GI50 [15]: > 10 µM (inactive)
- GI50 [16]: > 10 µM (inactive)
- GI50 [18]: > 10 µM (inactive)
- GI50 [19]: > 10 µM (inactive)
- GI50 [53]: > 10 µM (inactive)
- GI50 [21]: > 10 µM (inactive)
- GI50 [22]: > 10 µM (inactive)
- GI50 [23]: > 10 µM (inactive)
- GI50 [24]: > 10 µM (inactive)
- GI50 [25]: > 10 µM (inactive)
- GI50 [26]: > 10 µM (inactive)
- GI50 [27]: > 10 µM (inactive)
- GI50 [32]: > 10 µM (inactive)
- GI50 [54]: > 10 µM (inactive)
- GI50 [34]: > 10 µM (inactive)
- GI50 [35]: > 10 µM (inactive)
- GI50 [36]: > 10 µM (inactive)
- GI50 [38]: > 10 µM (inactive)
- GI50 [39]: > 10 µM (inactive)
- GI50 [40]: > 10 µM
- GI50 [42]: > 10 µM (inactive)
- GI50 [44]: > 10 µM (inactive)
- GI50 [46]: > 10 µM (inactive)
- GI50 [47]: > 10 µM (inactive)
- GI50 [55]: > 10 µM (inactive)
- GI50 [51]: > 10 µM (inactive)

Compound: C(=N\Cc1ccccc1)/c1ccccc1-c1ccccc1/C=N/Cc1ccccc1
- GI50 [2]: > 10 µM (inactive)
- GI50 [3]: > 10 µM (inactive)
- GI50 [4]: > 10 µM (inactive)
- GI50 [5]: > 10 µM (inactive)
- GI50 [56]: > 7.96 µM (inactive)
- GI50 [6]: > 10 µM (inactive)
- GI50 [7]: > 10 µM (inactive)
- GI50 [8]: > 10 µM (inactive)
- GI50 [9]: > 7.23 µM (inactive)
- GI50 [10]: > 10 µM (inactive)
- GI50 [11]: > 10 µM (inactive)
- GI50 [57]: > 10 µM (inactive)
- GI50 [12]: > 10 µM (inactive)
- GI50 [13]: 2.36 µM (inactive)
- GI50 [14]: > 7.46 µM (inactive)
- GI50 [15]: > 10 µM (inactive)
- GI50 [16]: > 7.03 µM (inactive)
- GI50 [17]: > 10 µM (inactive)
- GI50 [18]: > 10 µM (inactive)
- GI50 [19]: > 9.62 µM (inactive)
- GI50 [20]: > 10 µM (inactive)
- GI50 [53]: > 8.67 µM (inactive)
- GI50 [21]: 3.52 µM (inactive)
- GI50 [23]: 3.82 µM (inactive)
- GI50 [24]: 4.99 µM (inactive)
- GI50 [25]: 5.33 µM (inactive)
- GI50 [26]: 3.01 µM (inactive)
- GI50 [27]: > 7.57 µM (inactive)
- GI50 [28]: > 10 µM (inactive)
- GI50 [29]: 2.86 µM (inactive)
- GI50 [30]: > 10 µM (inactive)
- GI50 [58]: > 10 µM (inactive)
- GI50 [31]: > 10 µM (inactive)
- GI50 [32]: > 10 µM (inactive)
- GI50 [54]: 2.7 µM (inactive)
- GI50 [33]: 2.65 µM (inactive)
- GI50 [34]: > 10 µM (inactive)
- GI50 [35]: > 10 µM (inactive)
- GI50 [36]: > 10 µM (inactive)
- GI50 [37]: > 8.34 µM (inactive)
- GI50 [38]: 3.26 µM (inactive)
- GI50 [39]: > 10 µM (inactive)
- GI50 [40]: 5.47 µM
- GI50 [41]: > 10 µM (inactive)
- GI50 [42]: 4.59 µM (inactive)
- GI50 [43]: 4.6 µM (inactive)
- GI50 [44]: > 10 µM (inactive)
- GI50 [45]: > 10 µM (inactive)
- GI50 [46]: > 10 µM (inactive)
- GI50 [47]: 9.86 µM (inactive)
- GI50 [55]: > 10 µM (inactive)
- GI50 [48]: > 10 µM (inactive)
- GI50 [49]: > 8.53 µM (inactive)
- GI50 [50]: 5.42 µM (inactive)
- GI50 [51]: 3.13 µM (inactive)
- GI50 [52]: 6.5 µM (inactive)

Compound: CCOC(=O)Cc1csc(N/C=C2/C(=O)Oc3ccccc3C2=O)n1
- GI50 [1]: 22 µM (inactive)
- GI50 [2]: 32.2 µM (inactive)
- GI50 [4]: 39.1 µM (inactive)
- GI50 [56]: 31.7 µM (inactive)
- GI50 [7]: 13.1 µM (inactive)
- GI50 [8]: 26.4 µM (inactive)
- GI50 [9]: 13.5 µM (inactive)
- GI50 [10]: 16.9 µM (inactive)
- GI50 [11]: 24.7 µM (inactive)
- GI50 [57]: 37.4 µM (inactive)
- GI50 [12]: 27.8 µM (inactive)
- GI50 [13]: 0.083 µM (active)
- GI50 [14]: 19.1 µM (inactive)
- GI50 [15]: 14.7 µM (inactive)
- GI50 [16]: 17.3 µM (inactive)
- GI50 [17]: 13.5 µM (inactive)
- GI50 [18]: 20.9 µM (inactive)
- GI50 [19]: 1.79 µM (inactive)
- GI50 [20]: 24.2 µM (inactive)
- GI50 [53]: 22.8 µM (inactive)
- GI50 [21]: 10.2 µM (inactive)
- GI50 [23]: 40.8 µM (inactive)
- GI50 [26]: 18.6 µM (inactive)
- GI50 [27]: 25.1 µM (inactive)
- GI50 [28]: 13.6 µM (inactive)
- GI50 [29]: 27.6 µM (inactive)
- GI50 [30]: 14.9 µM (inactive)
- GI50 [58]: 23.9 µM (inactive)
- GI50 [31]: 22.6 µM (inactive)
- GI50 [32]: 35.4 µM (inactive)
- GI50 [54]: 20.8 µM (inactive)
- GI50 [33]: 26.6 µM (inactive)
- GI50 [34]: 44.7 µM (inactive)
- GI50 [35]: 24.8 µM (inactive)
- GI50 [36]: 21.6 µM (inactive)
- GI50 [37]: 45.4 µM (inactive)
- GI50 [38]: 14.3 µM (inactive)
- GI50 [39]: 20.9 µM (inactive)
- GI50 [40]: 24.2 µM
- GI50 [41]: 17.7 µM (inactive)
- GI50 [42]: 10.9 µM (inactive)
- GI50 [43]: 25.9 µM (inactive)
- GI50 [44]: 26.2 µM (inactive)
- GI50 [46]: 35.8 µM (inactive)
- GI50 [47]: 23.8 µM (inactive)
- GI50 [55]: 34.2 µM (inactive)
- GI50 [48]: 11.7 µM (inactive)
- GI50 [49]: 12 µM (inactive)
- GI50 [50]: 25.6 µM (inactive)
- GI50 [52]: 20 µM (inactive)

Compound: CCCCCCCCCCCCCCCCP(=O)(O)OP(=O)(O)OCC1OC(n2ccc(N)nc2=O)C(O)C1O (centres undefined)
- GI50 [5]: 25.8 µM (inactive)
- GI50 [10]: 14.3 µM (inactive) and 22.9 µM (inactive)
- GI50 [11]: 29.4 µM (inactive) and 41 µM (inactive)
- GI50 [57]: 18.5 µM (inactive) and 21.7 µM (inactive)
- GI50 [12]: 31.8 µM (inactive) and 38.4 µM (inactive)
- GI50 [24]: > 90.2 µM (inactive)
- GI50 [27]: 32.4 µM (inactive) and 47.5 µM (inactive)
- GI50 [28]: > 100 µM (inactive) and 76.7 µM (inactive)
- GI50 [38]: 0.323 µM (active)
- GI50 [42]: 16.9 µM (inactive) and 32.9 µM (inactive)
- GI50 [43]: 60 µM (inactive)
- GI50 [45]: 8.91 µM (inactive)
- GI50 [46]: > 100 µM (inactive)
